How the values were obtained:
DMS 114 = assay: in vitro small cell lung cancer cell growth inhibition (NCI screen); assay type: cell-based, human; conditions: for GI50: Homo sapiens, read-out: cytotoxicity log GI50 (converted)
DMS 273 = assay: as above; assay type: cell-based; conditions: Homo sapiens, read-out: cytotoxicity log GI50 (converted)

| SMILES | GI50 (DMS 114) | GI50 (DMS 273) | cytotoxicity log GI50 (DMS 114) |
| --- | --- | --- | --- |
| O=C(Cc1ccccc1F)NC1=C(Cl)C(=O)c2ccccc2C1=O [Compound 2i, 2-(2-Fluorophenyl)acetamido-3-chloro-1,4-naphthoguinone] | 0.174 µM | – | – |
| Cc1nc2c(n1CCC(C)C)C(=O)c1ccccc1C2=O [Compound 11] | – | 11 µM | – |
| CCC(C)Cn1c(C)nc2c1C(=O)c1ccccc1C2=O (centres unmarked) [Compound 13] | – | 9.77 µM | – |
| CCCC(C)n1c(C)nc2c1C(=O)c1ccccc1C2=O (centres unmarked) [Compound 9] | – | 7.24 µM | – |
| COc1ccc(Cn2c(C)nc3c2C(=O)c2ccccc2C3=O)cc1 [Compound 18] | – | 3.31 µM | – |
| CCn1c(Cc2ccc(F)cc2)nc2c1C(=O)c1ccccc1C2=O [Compound 66] | – | 9.77 µM | – |
| O=C1c2ccccc2C(=O)c2[nH]c(Cc3ccccc3F)nc21 [Compound 4b] | 33.9 µM | 34.7 µM | – |
| Cc1nc2c(n1CCO)C(=O)c1ccccc1C2=O [Compound 16] | – | 20 µM | – |
| Cc1ccc(Cn2c(C)nc3c2C(=O)c2ccccc2C3=O)cc1 [Compound 17] | – | 1.07 µM | – |
| Cc1nc2c(n1C(C)(C)C)C(=O)c1ccccc1C2=O [Compound 8] | – | 52.5 µM | – |
| CC(=O)NC1=C(NCCN(C)C)C(=O)c2ccccc2C1=O [Compound 39] | – | 11.7 µM | – |
| CCC(C)(C)n1c(C)nc2c1C(=O)c1ccccc1C2=O [Compound 12] | – | 11.7 µM | – |
| CCC(CC)n1c(C)nc2c1C(=O)c1ccccc1C2=O [Compound 10] | – | 22.9 µM | – |
| CC(=O)NC1=C(NCC(C)C)C(=O)c2ccccc2C1=O [Compound 31] | 14.8 µM | 14.5 µM | – |
| NC1=C(NC(=O)Cc2ccc(F)cc2)C(=O)c2ccccc2C1=O [Compound 3c] | – | 33.9 µM | – |
| Cc1nc2c(n1Cc1ccc(F)cc1)C(=O)c1ccccc1C2=O [Compound 19] | – | 6.46 µM | – |
| CCC(C)n1c(C)nc2c1C(=O)c1ccccc1C2=O (centres unmarked) [Compound 6] | – | 33.9 µM | – |
| Cc1nc2c(n1CC(C)C)C(=O)c1ccccc1C2=O [Compound 7] | – | 26.9 µM | – |
| Cc1nc2c(n1Cc1ccc(Cl)cc1)C(=O)c1ccccc1C2=O [Compound 20] | – | 2.63 µM | – |
| CCC(C)NC1=C(NC(C)=O)C(=O)c2ccccc2C1=O (centres unmarked) [Compound 30] | 28.2 µM | 27.5 µM | – |
| CCn1c(C)nc2c1C(=O)c1ccccc1C2=O [Compound 5, 1-ethyl-2-methylnaphth-[2,3-d]imidazole-4,9-dione] | 0.275 µM | 1.66 µM | -6.56 M |

Source: patent US5789431A, “Naphthoquinone antitumor compound and method” (The University of North Carolina at Chapel Hill, priority 1996, dated 1998)
